20 molecules from patent US20170291890A1 (Epizyme, Inc., priority 2014, published 2017) can be followed below.

A word on the pIC50: it is the negative decadic logarithm of the IC50, by convention in mol/L.

The structures appear in SMILES notation. pIC50: −log10 of the molar value. Where two headings read alike, the source gives them in different places. Bounds are passed on as bounds.

Experiment [1] has as its target T1, KDM4C (Homo sapiens, UniProt Q9H3R0).
T1 construct: N-terminal GST-tagged KDM4C^2-372 was purchased from BPS Biosciences; GST (N); purchased BPS Biosciences
T1 sequence (Q9H3R0 2-372): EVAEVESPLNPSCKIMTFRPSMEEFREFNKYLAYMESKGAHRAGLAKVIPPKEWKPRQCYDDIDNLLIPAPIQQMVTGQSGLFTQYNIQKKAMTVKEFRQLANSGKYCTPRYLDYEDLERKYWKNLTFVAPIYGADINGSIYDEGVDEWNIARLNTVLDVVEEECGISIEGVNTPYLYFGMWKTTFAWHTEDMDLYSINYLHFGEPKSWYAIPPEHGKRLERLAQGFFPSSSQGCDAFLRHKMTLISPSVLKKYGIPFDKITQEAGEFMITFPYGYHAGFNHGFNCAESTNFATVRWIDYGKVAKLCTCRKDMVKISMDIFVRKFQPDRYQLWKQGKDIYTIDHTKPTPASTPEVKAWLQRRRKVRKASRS
Nature of the experiment: KDM4C Assay (SAMDI mass spectrometry demethylase assay). The class given is biochemical. The note with it: N-terminal GST-tagged KDM4C 2-372, read-out: 4C IC50. As for the experimental part:
(§1) N-terminal GST-tagged KDM4C^2-372 was purchased from BPS Biosciences. Peptides were synthesized by BioPeptide and all other reagents were purchased from Sigma-Aldrich at the highest level of purity possible. Assays were performed in a 50 μL volume in 384-well V-bottom polypropylene microplates (Greiner) at 25° C. Optimized 1× assay buffer was 50 mM HEPES (pH=8.0), 100 μM sodium ascorbate, 20 mM NaCl, 10 μM ammonium iron sulfate, 1 mM tris(2-carboxyethyl)phosphine (TCEP), 0.002% Tween-20, and 0.005% BSG. For compound screening, 35 μL of KDM4C^2-372 (final concentration, f.c.=5 nM) was added using a Multidrop Combi and preincubated with 1 μL of test compound (f.c.=10 μM) for 30 minutes and subsequently 15 μL of peptide with the following sequence NH2-ARTKQTAR(Kme3)STGGKAPRKQLA(K-Ahx-Biotin)-amide (f.c.=500 nM) and 2-oxoglutarate (f.c.=15 μM) was added by Multidrop Combi to begin the reaction. Reactions proceeded for 150 minutes and were stopped by the addition of 5 μL of formic acid (f.c.=0.5%) using a Multidrop Combi and then analyzed by SAMDI Tech Inc.
(§2) SAMDI Tech analyzed all reactions using self-assembled monoloayer desorption/ionization technology as previously described (Gerard-Levin Z A, Scholle M D, Eisenberg A H, et al.: High-throughput screening of small molecule libraries using SAMDI mass spectrometry. ACS Comb Sci 2011; 13:347-350). Briefly, a 2 μL sample of the stopped demethylase reactions were transferred to a SAMDI array coated with 384 biotin-neutravidin spots using a 384-channel pipet station. The SAMDI arrays were incubated for 1 h in a humidified chamber, followed by washing of the surface with deionized ultra-filtered water (DIUF) and drying under nitrogen. A matrix of 30 mg/ml 2′,4′,6′-Trihydroxyacetophenone monohydrate (THAP) in acetone was applied using a TPP Mosquito 1.2 μL tip by dispensing 50 nL on each of the 384 spots on the array. SAMDI-MS was run using acquisition method ReflectorPositiveUTX. The % conversion of substrate to product was calculated using the AUC of the substrate and product peptide peaks.
(§3) An IC50 value was determined by contacting various concentrations of a test compound with one of the KDM4A, KDM4C or KDMSC enzyme constructs and plotting a dose-response curve which associates the amount of inhibition of the enzyme relative to the concentration of the test compound. From the curve, the IC50 value (which represents the concentration of the test compound necessary to inhibit maximal enzymatic activity by 50%) was determined. Additionally, the slope of the linear range of the plotted curve, which indicates the speed with which the curve rises between the minimum and maximum, was calculated.

In experiment [2] the target is T2, KDM5A (Homo sapiens, UniProt P29375).
T2 construct: C-terminal FLAG-tagged KDM5A^1-1090 was purchased from BPS Biosciences; FLAG (C); purchased BPS Biosciences
T2 sequence (P29375 1-1090): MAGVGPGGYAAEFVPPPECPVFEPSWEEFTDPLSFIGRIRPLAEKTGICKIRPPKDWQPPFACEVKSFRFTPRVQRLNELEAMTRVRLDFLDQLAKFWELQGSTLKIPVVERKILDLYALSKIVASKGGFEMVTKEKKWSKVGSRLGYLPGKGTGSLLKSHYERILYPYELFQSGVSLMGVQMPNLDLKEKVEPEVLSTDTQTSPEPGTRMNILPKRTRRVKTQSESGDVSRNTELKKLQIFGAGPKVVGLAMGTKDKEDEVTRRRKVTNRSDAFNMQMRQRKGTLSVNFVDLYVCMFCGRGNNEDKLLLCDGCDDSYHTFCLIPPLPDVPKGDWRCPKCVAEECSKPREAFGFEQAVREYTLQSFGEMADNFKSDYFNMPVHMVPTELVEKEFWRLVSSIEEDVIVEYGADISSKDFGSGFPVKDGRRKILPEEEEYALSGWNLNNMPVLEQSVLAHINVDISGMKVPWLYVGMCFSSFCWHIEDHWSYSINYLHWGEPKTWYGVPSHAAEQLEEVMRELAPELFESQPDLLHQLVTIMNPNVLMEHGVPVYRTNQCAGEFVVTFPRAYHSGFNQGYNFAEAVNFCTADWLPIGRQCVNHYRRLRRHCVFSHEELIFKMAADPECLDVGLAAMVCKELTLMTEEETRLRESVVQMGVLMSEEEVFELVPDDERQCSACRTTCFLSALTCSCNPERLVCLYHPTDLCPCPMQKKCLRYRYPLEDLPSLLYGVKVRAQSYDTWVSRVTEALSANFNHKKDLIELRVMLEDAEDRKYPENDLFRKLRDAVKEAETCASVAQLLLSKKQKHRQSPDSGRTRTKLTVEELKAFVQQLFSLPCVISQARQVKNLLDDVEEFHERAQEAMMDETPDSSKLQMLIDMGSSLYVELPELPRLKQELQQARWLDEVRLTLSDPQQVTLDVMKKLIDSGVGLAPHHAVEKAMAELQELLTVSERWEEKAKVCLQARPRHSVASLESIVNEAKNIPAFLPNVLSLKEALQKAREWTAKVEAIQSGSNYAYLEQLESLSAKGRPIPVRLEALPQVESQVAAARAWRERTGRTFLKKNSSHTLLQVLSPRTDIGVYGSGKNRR
Nature of the experiment: KDM5A Assay (SAMDI mass spectrometry demethylase assay). The note with it: C-terminal FLAG-tagged KDM5A 1-1090, read-out: 5A IC50. In kind it is biochemical. As for the experimental part:
as §1, with “C-terminal FLAG-tagged KDM5A^1-1090” for “N-terminal GST-tagged KDM4C^2-372”, “[…]” for “KDM4C^2-372”, “f.c.=20” for “f.c.=5”, “NH2-ART[Kme-3]QTARKSTGGKA[K-Ahx-Biot]-amide (f.c.=250” for “NH2-ARTKQTAR(Kme3)STGGKAPRKQLA(K-Ahx-Biotin)-amide (f.c.=500”
as §2, §3

For the molecule `Cc1nn([C@@H]2CNC[C@@H]2C)cc1Nc1cnccc1C(=O)O` (single isomer, unassigned) [Compound 109], the pIC50 in experiment [1] (class symbols) is 5.00 to 6.00; in experiment [2] (class symbols) it was 6.00 to 7.00.
Regarding `Cc1nn([C@H]2CNC[C@H]2C)cc1Nc1cnccc1C(=O)O` (single isomer, unassigned) [Compound 110], the pIC50 is 6.00 to 7.00 in experiment [1] (class symbols) and 7.00 to 9.00 in experiment [2] (class symbols).
Taken in the same sequence, the figures for `Cc1c(Nc2cnccc2C(=O)O)cnn1C1CCCNCC1` (single isomer, unassigned) [Compound 113] were 6.00 to 7.00 and 5.00 to 6.00.
Take `Cc1c(Nc2cnccc2C(=O)O)cnn1C1CCCN(C2CCC2)CC1` (single isomer, unassigned) [Compound 117]: the pIC50 in experiment [1] (class symbols) was 6.00 to 7.00; in experiment [2] (class symbols) it was 5.00 to 6.00.
`Cc1nn(C2CCCN(C3CCC3)CC2)cc1Nc1cnccc1C(=O)O` (single isomer, unassigned) [Compound 118]: the pIC50 in experiment [1] (class symbols) was 5.00 to 6.00; in experiment [2] (class symbols), 6.00 to 7.00.
As for `Cc1c(Nc2cnccc2C(=O)O)cnn1C1CCCN(C2CCC2)CC1` (single isomer, unassigned) [Compound 119], the pIC50 in experiment [1] (class symbols) was 6.00 to 7.00; in experiment [2] (class symbols), 5.00 to 6.00.
For `Cc1nn(C2CCCN(C3CCC3)CC2)cc1Nc1cnccc1C(=O)O` (single isomer, unassigned) [Compound 120], the pIC50 in experiment [1] (class symbols) and in experiment [2] (class symbols) was 6.00 to 7.00 in each case.
On to `Cc1nn(C2CCN(c3ccccc3)CC2)cc1Nc1cnccc1C(=O)O` [Compound 105, 3-(3-methyl-1-(1-phenylpiperidin-4-yl)-1H-pyrazol-4-ylamino) isonicotinic acid], for which the pIC50 in experiment [1] (class symbols) is 6.00 to 7.00; in experiment [2] (class symbols) it was 7.00 to 9.00.
In the case of `Cc1c(Nc2cnccc2C(=O)O)cnn1C1CCN(c2ccccc2)CC1` [Compound 106, 3-(5-methyl-1-(1-phenylpiperidin-4-yl)-1H-pyrazol-4-ylamino)isonicotinic acid], the pIC50 is 7.00 to 9.00 in experiment [1] (class symbols) and 5.00 to 6.00 in experiment [2] (class symbols).
As for `Cc1c(Nc2cnccc2C(=O)O)cnn1CCN(C)C` [Compound 108], the pIC50 in experiment [1] (class symbols) and in experiment [2] (class symbols) was 5.00 to 6.00 in each case.
On to `Cc1nn([C@H]2CCN(C)C2)cc1Nc1cnccc1C(=O)NCCO` [Compound 121, (S)—N-(2-hydroxyethyl)-3-((3-methyl-1-(1-methylpyrrolidin-3-yl)-1H-pyrazol-4-yl)amino)isonicotinamide], for which the pIC50 in experiment [1] (numeric bound) and in experiment [2] (numeric bound) was less than 4.00 throughout.
`Cc1nn([C@@H]2CCN(C)C2)cc1Nc1cnccc1C(=O)NCCO` [Compound 122, (R)—N-(2-hydroxy-ethyl)-3-((3-methyl-1-(1-methylpyrrolidin-3-yl)-1H-pyrazol-4-yl)amino)isonicotin-amide]: the pIC50 in experiment [1] (numeric bound) is less than 4.00; in experiment [2] (class symbols), 4.00 to 5.00.
Consider `CCc1c(Nc2cnccc2C(=O)O)cnn1C1CCN(C)CC1` [Compound 123, 3-(5-ethyl-1-(1-methylpiperidin-4-yl)-1H-pyrazol-4-ylamino) isonicotinic acid], for which the pIC50 in experiment [1] (class symbols) is 6.00 to 7.00; in experiment [2] (class symbols), 5.00 to 6.00.
With `CN1CCC(n2ncc(Nc3cnccc3C(=O)O)c2-c2ccccc2)C1` (stereo not shown) [Compound 124], the pIC50 in experiment [1] (class symbols) and in experiment [2] (class symbols) was 5.00 to 6.00 throughout.
On to `O=C(O)c1ccncc1Nc1cnn(C2CCN(Cc3ccccc3)C2)c1-c1ccccc1` (stereo not shown) [Compound 125, 3-(1-(1-benzylpyrrolidin-3-yl)-5-phenyl-1H-pyrazol-4-ylamino) isonicotinic acid], for which the pIC50 in experiment [1] (class symbols) and in experiment [2] (class symbols) was 6.00 to 7.00 in each case.
For the molecule `CN1CCC(n2cc(Nc3cnccc3C(=O)O)c(-c3ccccc3)n2)CC1` [Compound 127, 3-(1-(1-methylpiperidin-4-yl)-3-phenyl-1H-pyrazol-4-ylamino)isonicotinic acid], the pIC50 in experiment [1] (class symbols) and in experiment [2] (class symbols) was 6.00 to 7.00 each time.
With `Cc1cn(Cc2ccccc2)nc1Nc1cnccc1C(=O)O` [Compound 128, 3-(1-benzyl-4-methyl-1H-pyrazol-3-ylamino)isonicotinic acid], the pIC50 in experiment [1] (class symbols) and in experiment [2] (class symbols) was 6.00 to 7.00 throughout.
`O=C(O)c1ccncc1Nc1nn(C2CCNCC2)cc1-c1ccccc1` [Compound 129, 3-(4-phenyl-1-(piperidin-4-yl)-1H-pyrazol-3-ylamino) isonicotinic acid]: the pIC50 was 6.00 to 7.00 in experiment [1] (class symbols) and 7.00 to 9.00 in experiment [2] (class symbols).
On to `CN1CCC(n2cc(-c3ccccc3)c(Nc3cnccc3C(=O)O)n2)CC1` [Compound 130, 3-(1-(1-methylpiperidin-4-yl)-4-phenyl-1H-pyrazol-3-ylamino) isonicotinic acid], for which the pIC50 in experiment [1] (class symbols) is 6.00 to 7.00; in experiment [2] (class symbols), 7.00 to 9.00.
In the case of `O=C(O)c1ccncc1Nc1c(-c2ccccc2)cnn1[C@H]1CNc2ccccc2C1` [Compound 137, (R)-3-(4-phenyl-1-(1,2,3,4-tetrahydroquinolin-3-yl)-1H-pyrazol-5-ylamino)isonicotinic acid], the pIC50 in experiment [1] (class symbols) and in experiment [2] (class symbols) was 4.00 to 5.00 in each case.
